By pEC50 is commonly meant −log10 of the EC50, conventionally taken in molar units.

pEC50: −log10 of the molar value. Where a name gives a salt, the structure may show the parent alone.

Here are results for 16 compounds from article PMC6136712, “Ex vivo drug sensitivity testing as a means for drug repurposing in esophageal adenocarcinoma” (PLoS ONE, 2018).

Holding throughout (assay type): cell-based, human
Assay [1] concerns normal esophageal epithelium cell line EACN42. Nature of the assay: FDA library drug sensitivity testing (CellTiter-Glo, 72 h), normal control cells. Further details: key to DSS: modified drug sensitivity score (DSSmod) from dose-response curve fit. The gist of the method: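 HPV E6-E7-immortalized normal human esophageal epithelial cells, 1000 per well, exposed 72 h at 37 °C to drugs in duplicate from 10μM top concentration across a 20,000-fold range. Viability by ATP bioluminescence; DMSO wells as negative control; curves scored with modified drug sensitivity score (DSSmod).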

In assay [2] the test system is EAC42 cells. Nature of the assay: FDA library drug sensitivity testing (CellTiter-Glo, 72 h). The settings on record: EAC42; sDSSmod = DSSmod (patient cells) - DSSmod (normal cells). The source says:
(§1) OE33, OE19 and SKGT2 human esophageal adenocarcinoma cell lines were obtained from the European Collection of Cell Culture ([…]). Flo1, EAC42 and EAC47 cells were established in the Capobianco Laboratory. EAC42 and EAC47 human esophageal adenocarcinoma cell lines are derived from patients undergoing surgery at the Miller School of Medicine, University of Miami. The Capobianco laboratory obtained written informed consent from all patients and approval from the Institutional Research Ethics Committee.
(§2) Drug sensitivity testing (DST) was performed as described previously. […] Individual drugs were dissolved in 100% DMSO and tested in duplicates starting at a maximal test concentration of 10μM then over a 20,000-fold concentration range to generate dose response curves. Wells with assay buffer containing DMSO served as negative controls. 1000 exponentially growing cells were seeded per well in 384-well micro-titer plates and incubated in the presence of compounds in a humidified environment at 37°C and 5% CO2. After 72 hours of treatment, cell viability was assessed by measuring ATP levels via bioluminescence (CellTiter-Glo, Promega) according to manufactures recommendations. Interpretation of curve parameters was performed according to the modified drug sensitivity scoring (DSSmod) function developed by Swords et al. […] Given in this way, the sDSSmod incorporated information on each drug’s potency, efficacy, effect range and therapeutic index, making it possible to prioritize compounds over multiple parameters using a single numerical metric. […] All calculations and scoring routines are implemented in MatLab and additional curve fitting and statistical analyses are performed in GraphPad prism.
A general note: ATP-based viability assays read luminescence as a measure of living cells.

Assay [3] relates to EAC47 cells. The description is as above. The settings on record: EAC47; sDSSmod = DSSmod (patient cells) - DSSmod (normal cells).
Description: as §1, §2

The subject of assay [4] is OE33 cells. The assay is described as above. To be noted: OE33; sDSSmod = DSSmod (patient cells) - DSSmod (normal cells).
Description: as §1, §2

The subject of assay [5] is SK-GT2 cells. Described as above. The settings on record: SK-GT2; sDSSmod = DSSmod (patient cells) - DSSmod (normal cells).
Description: as §1, §2

The test system of assay [6] is Flo-1 cells. The description is as above. The settings on record: Flo-1; sDSSmod = DSSmod (patient cells) - DSSmod (normal cells).
Description: as §1
Drug sensitivity testing (DST) was performed as described previously. […] Individual drugs were dissolved in 100% DMSO and tested in duplicates starting at a maximal test concentration of 10μM then over a 20,000-fold concentration range to generate dose response curves. Wells with assay buffer containing DMSO served as negative controls. 1000 exponentially growing cells were seeded per well in 384-well micro-titer plates and incubated in the presence of compounds in a humidified environment at 37°C and 5% CO2. After 72 hours of treatment, cell viability was assessed by measuring ATP levels via bioluminescence (CellTiter-Glo, Promega) according to manufactures recommendations. Interpretation of curve parameters was performed according to the modified drug sensitivity scoring (DSSmod) function developed by Swords et al. As a final step, the selective DSSmod (sDSSmod) for each drug in each patient screen is calculated according to the formula sDSSmod = DSSmod (patient cells)—DSSmod (normal cells). Given in this way, the sDSSmod incorporated information on each drug’s potency, efficacy, effect range and therapeutic index, making it possible to prioritize compounds over multiple parameters using a single numerical metric. In addition, this methodology allows us to rank compounds by cancer-selective efficacy for each individual patient. […] All calculations and scoring routines are implemented in MatLab and additional curve fitting and statistical analyses are performed in GraphPad prism.

In assay [7] the test system is OE19 cells. The assay is described as above. The settings on record: sDSSmod = DSSmod (patient cells) - DSSmod (normal cells).
Description: as §1, §2

Setting [8] is: Homo sapiens; EACN42 normal esophageal cells, 72 h, cell viability (ATP), max test concentration 10μM.
[9] abbreviates: drug sensitivity score, EACN42 normal esophageal cells, 72 h.
[10] abbreviates: Homo sapiens, 72 h, EACN42 normal esophageal cells, cell viability (ATP), max test concentration 10μM.

`C/C=C(\C)C(=O)N[C@@H](c1ccccc1)[C@@H](O)C(=O)O[C@H]1C[C@@]2(O)[C@@H](OC(=O)c3ccccc3)[C@@H]3[C@]4(OC(C)=O)CO[C@@H]4C[C@H](O)[C@@]3(C)C(=O)[C@H](OC(C)=O)C(=C1C)C2(C)C` [Cephalomannine] gave a pEC50 in assay [1] (setting [8]) of 6.79. In assay [1] (setting [9]), this compound came in with a DSS of 23.35. In addition, the sDSSmod in assay [2] is -5.552; in assay [3], -8.868; in assay [4] it was 5.452; in assay [5], 21.46; in assay [6] it was 12.79.
In the case of `Cc1[nH]c2ccccc2c1CCNCc1ccc(/C=C/C(=O)NO)cc1` [Panobinostat], the pEC50 in assay [1] (setting [10]) was 7.05. The same compound had a DSS in assay [1] (setting [9]) of 40.42. The sDSSmod in assay [2] is given as 7.607; in assay [7] it was -40.4215; in assay [4], -40.4215; in assay [5] it was -40.4215; in assay [6] it was -40.42.
`Cc1cn(-c2cc(NC(=O)c3ccc(C)c(Nc4nccc(-c5cccnc5)n4)c3)cc(C(F)(F)F)c2)cn1` [Nilotinib]: the negative-log EC50 (pEC50) in assay [1] (setting [10]) was below 5.00. This compound gave a DSS in assay [1] (setting [9]) of 0.43. In addition, the sDSSmod in assay [7] stood at 18.74; in assay [4], 32.09; in assay [5], 27.22; in assay [6] it was 37.8.
Take `CC[C@@]1(O)C(=O)OCc2c1cc1n(c2=O)Cc2cc3ccccc3nc2-1` [Camptothecin]: the negative logarithm of the EC50 (pEC50) in assay [1] (setting [10]) is 7.70. The DSS in assay [1] (setting [9]) is listed as 52.69. Besides, the sDSSmod in assay [2] is reported as -13.5945; in assay [3] it was -15.9763; in assay [7] it was -34.9341; in assay [5], -11.3049; in assay [6] it was -20.76.
Compound `CC(C)C[C@H](NC(=O)[C@H](Cc1ccccc1)NC(=O)c1cnccn1)B(O)O` [Bortezomib] showed a pEC50 in assay [1] (setting [10]) of 6.70. In assay [1] (setting [9]), the DSS was found to be 35.58. For the same compound, the sDSSmod in assay [2] is on record as -21.0264; in assay [3], -23.5292; in assay [7], -35.5757; in assay [4], -35.5757; in assay [5], -35.5649; in assay [6], -35.57.
Consider `Cc1nc(Nc2ncc(C(=O)Nc3c(C)cccc3Cl)s2)cc(N2CCN(CCO)CC2)n1` [Dasatinib], for which the pEC50 in assay [1] (setting [10]) is 7.10. The compound further had a DSS in assay [1] (setting [9]) of 12.81. For the same compound, the sDSSmod in assay [2] is given as -9.752; in assay [3], -10.2728; in assay [7] it was -12.8072; in assay [4], -12.8072; in assay [5], -12.8072; in assay [6], -12.8.
Consider `CC(=O)O[C@@]12CO[C@@H]1C[C@H](O)[C@@]1(C)C(=O)[C@H](O)C3=C(C)[C@@H](OC(=O)[C@H](O)[C@@H](NC(=O)OC(C)(C)C)c4ccccc4)C[C@@](O)([C@@H](OC(=O)c4ccccc4)[C@H]21)C3(C)C` [Docetaxel], for which the negative logarithm of the EC50 (pEC50) in assay [1] (setting [10]) was 5.52. The compound also registered a DSS in assay [1] (setting [9]) of 40.14. The sDSSmod is recorded as -15.5932 in assay [2], -23.2183 in assay [3], 16.5247 in assay [5] and 8.04 in assay [6].
`CC(C)C[C@H](NC(=O)[C@H](CCc1ccccc1)NC(=O)CN1CCOCC1)C(=O)N[C@@H](Cc1ccccc1)C(=O)N[C@@H](CC(C)C)C(=O)[C@@]1(C)CO1` [Cartilzomib, Carfilzomib]: the pEC50 in assay [1] (setting [10]) was 7.10. For the same compound, in assay [1] (setting [9]), the DSS is 44.43. For the same compound, the sDSSmod in assay [7] is -42.8127; in assay [4], -43.92; in assay [5], -44.432; in assay [6], -44.35.
As for `COc1cccc2c1C(=O)c1c(O)c3c(c(O)c1C2=O)C[C@@](O)(C(=O)CO)C[C@@H]3O[C@H]1C[C@H](N)[C@H](O)[C@H](C)O1` [Doxorubicin], the pEC50 in assay [1] (setting [10]) is 5.85. This compound registered a DSS in assay [1] (setting [9]) of 15.67. In addition, the results for the sDSSmod in assay [7], in assay [5] and in assay [6] were -12.9053, -8.365 and 7.66, respectively.
For `[Na+].[Na+].[Na+].[O]=[V]([O-])([O-])[O-]` [Sodium orthovanadate], in assay [1] (setting [9]), the DSS is 0. Besides, the sDSSmod in assay [7] turned out to be 5.913; in assay [5], 23.66; in assay [6], 13.33.
Regarding `COc1cccc2c1C(=O)c1c(O)c3c(c(O)c1C2=O)C[C@@](O)(C(C)=O)C[C@@H]3O[C@H]1C[C@H](N)[C@H](O)[C@H](C)O1` [Daunorubicin HCl], in assay [1] (setting [8]), the pEC50 was 6.01. This compound also came in with a DSS in assay [1] (setting [9]) of 21.12. Moreover, the sDSSmod was -13.6679 in assay [7] and 5.15 in assay [6].
On to `CC[C@]1(O)C[C@H]2CN(CCc3c([nH]c4ccccc34)[C@@](C(=O)OC)(c3cc4c(cc3OC)N(C=O)[C@H]3[C@@](O)(C(=O)OC)[C@H](OC(C)=O)[C@]5(CC)C=CCN6CC[C@]43[C@@H]65)C2)C1` [Vincristine], for which the pEC50 in assay [1] (setting [10]) is 7.52. Besides, the sDSSmod is given as -7.92 in assay [2]; -16.3015 in assay [3]; -8.234 in assay [4]; -7.21 in assay [5]; 6.31 in assay [6].
As for `CC(=O)O[C@H]1C(=O)[C@@]2(C)[C@H]([C@H](OC(=O)c3ccccc3)[C@]3(O)C[C@H](OC(=O)[C@H](O)[C@@H](NC(=O)c4ccccc4)c4ccccc4)C(C)=C1C3(C)C)[C@]1(OC(C)=O)CO[C@@H]1C[C@@H]2O` [Paclitaxel], in assay [1] (setting [10]), the pEC50 was 8.00. Besides, the DSS in assay [1] (setting [9]) is reported as 34.94. Moreover, the sDSSmod in assay [2] was -12.1; in assay [3] it was -17.6632; in assay [4] it was 7.642; in assay [5] it was 12.8; in assay [6], 9.33.
For `O=C(CCCCCCC(=O)Nc1ccccc1)NO` [Vorinostat], the DSS in assay [1] (setting [9]) amounted to 5.09. The sDSSmod in assay [2] is reported as 7.485; in assay [3], 5.288; in assay [7] it was 9.843; in assay [4], 15.71; in assay [6], 9.58.
In turn, `CC[C@@]1(O)C(=O)OCc2c1cc1n(c2=O)Cc2cc3c(CN(C)C)c(O)ccc3nc2-1` [Topotecan HCl] had a pEC50 in assay [1] (setting [10]) of 7.22. Further, the DSS in assay [1] (setting [9]) stood at 43.21. Besides, the sDSSmod in assay [2] is listed as -9.367; in assay [3] it was -11.6273; in assay [7] it was -36.6414; in assay [5] it was -13.0332; in assay [6], -20.26.
For the compound `O=C1c2c(O)ccc(O)c2C(=O)c2c(NCCNCCO)ccc(NCCNCCO)c21` [Mitoxantrone Hydrochloride], the pEC50 in assay [1] (setting [10]) is 5.78. In assay [1] (setting [9]), this compound showed a DSS of 17.16. Moreover, the sDSSmod is recorded as 6.699 in assay [2], 5.242 in assay [3], 9.033 in assay [4] and 17.0838 in assay [6].
